Experimental data published in the NIST ThermoML archive (doi:10.1021/je200816z).
Numbers after ± are expanded uncertainties.

Conditions: 351.21 K; Liquid

SMILES: CCO [ethanol]
- vapor or sublimation pressure: 100 ± 0.9 kPa
